The source of these data is ChEMBL document CHEMBL5463728, “Data for DCP probe BAY-6096” (2023).

For assay [1], the target named is Histamine H2 receptor (Homo sapiens) (UniProt P25021). The conditions noted are these: Compound concentration 10.0 uM.
In assay [2] the target is Adenosine receptor A2a (Homo sapiens) (UniProt P29274). The following applies: Compound concentration 10.0 uM.
The species named for the next assay is Oryctolagus cuniculus. The following applies: Compound concentration 10.0 uM.
Assay [3] addresses Phosphodiesterase 3 (Homo sapiens) (UniProt Q14432+Q13370). Description: Inhibition of Phosphodiesterase PDE3 at compound concentration of 10.0 uM in the Eurofins-Panlabs enzyme assay (Eurofins_assay_152000). The conditions noted are these: Compound concentration 10.0 uM. The class given is protein assay. The arrangement: substrate with concentration 1.01 uM [3H] cAMP + cAMP, incubation time 20 min, incubation temperature 25 C.

For assay [4], the target named is Muscarinic acetylcholine receptor M3 (Homo sapiens) (UniProt P20309). The following applies: Compound concentration 10.0 uM.
Assay [5] concerns the target Endothelin receptor type B (Homo sapiens) (UniProt P24530). The following applies: Compound concentration 10.0 uM.
The target of assay [6] is Beta-2 adrenergic receptor (Homo sapiens, UniProt P07550). The following applies: Compound concentration 10.0 uM.
The target in assay [7] is Adenosine receptor A1 (Homo sapiens) (UniProt P30542). The conditions noted are these: Compound concentration 10.0 uM.
Assay [8] addresses D(1A) dopamine receptor (Homo sapiens) (UniProt P21728). The conditions noted are these: Compound concentration 10.0 uM.
The target of assay [9] is Carbonic anhydrase 2 (Homo sapiens) (UniProt P00918). Description: Inhibition of Carbonic Anhydrase II at compound concentration of 10.0 uM in the Eurofins-Panlabs enzyme assay (Eurofins_assay_112020). The arrangement: substrate with concentration. The conditions noted are these: Compound concentration 10.0 uM.
Assay [10] deals with 5-hydroxytryptamine receptor 2B (Homo sapiens) (UniProt P41595). The conditions noted are these: Compound concentration 10.0 uM.
The target in assay [11] is Prostaglandin G/H synthase 2 (Homo sapiens) (UniProt P35354). Description: Inhibition of Cyclooxygenase COX-2 at compound concentration of 10.0 uM in the Eurofins-Panlabs enzyme assay (Eurofins_assay_118010). The arrangement: substrate with concentration 0.3 uM Arachidonic acid, incubation time 15 min, incubation temperature 37 C. The conditions noted are these: Compound concentration 10.0 uM.

In assay [12] the target is Alpha-1B adrenergic receptor (Homo sapiens, UniProt P35368). Description: Adrenoceptor reporter cell assay (ADRA1B). The assay is classed as functional.
The target of a further assay is D(2) dopamine receptor (Homo sapiens, UniProt P14416). The conditions noted are these: Compound concentration 10.0 uM.
The target of assay [13] is Adenosine receptor A3 (Homo sapiens) (UniProt P0DMS8). The conditions noted are these: Compound concentration 10.0 uM.
Assay [14] has as its target Nitric oxide synthase, inducible (Homo sapiens) (UniProt P35228). The experiment in a line: Inhibition of Nitric Oxide Synthase, Inducible (iNOS) at compound concentration of 10.0 uM in the Eurofins-Panlabs enzyme assay (Eurofins_assay_199010). Also noted: substrate with concentration. The conditions noted are these: Mus musculus; Compound concentration 10.0 uM.
Assay [15] addresses Mu-type opioid receptor (Homo sapiens) (UniProt P35372). The following applies: Compound concentration 10.0 uM.
The target in assay [16] is T1, Muscarinic acetylcholine receptor M2 (Homo sapiens) (UniProt P08172).
T1 sequence (whole entry): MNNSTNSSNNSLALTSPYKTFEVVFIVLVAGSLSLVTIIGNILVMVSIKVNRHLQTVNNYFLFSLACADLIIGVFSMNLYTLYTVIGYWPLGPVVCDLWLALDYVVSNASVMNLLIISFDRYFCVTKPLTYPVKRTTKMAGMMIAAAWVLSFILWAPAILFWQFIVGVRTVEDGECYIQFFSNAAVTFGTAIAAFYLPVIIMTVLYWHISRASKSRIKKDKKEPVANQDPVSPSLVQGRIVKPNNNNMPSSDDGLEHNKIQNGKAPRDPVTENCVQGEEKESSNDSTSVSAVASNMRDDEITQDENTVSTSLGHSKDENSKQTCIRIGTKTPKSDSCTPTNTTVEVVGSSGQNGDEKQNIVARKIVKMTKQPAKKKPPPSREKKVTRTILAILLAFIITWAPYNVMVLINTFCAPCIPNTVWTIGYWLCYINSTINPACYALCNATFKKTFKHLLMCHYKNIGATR
The following applies: Compound concentration 10.0 uM.

Assay [17] deals with Endothelin-1 receptor (Homo sapiens) (UniProt P25101). The following applies: Compound concentration 10.0 uM.
Another assay is filed under the species Rattus norvegicus. The conditions noted are these: Compound concentration 10.0 uM.
Assay [18] deals with Glutamate receptor ionotropic, kainate (Rattus norvegicus) (UniProt P22756+Q01812+P42260+P42264+Q63273). The following applies: Compound concentration 10.0 uM.
The target of assay [19] is Alpha-1D adrenergic receptor (Homo sapiens, UniProt P25100). The experiment in a line: Adrenoceptor reporter cell assay (ADRA1D). The class given is functional.
Assay [20] addresses Polyunsaturated fatty acid lipoxygenase ALOX15 (Homo sapiens) (UniProt P16050). Description: Inhibition of Lipoxygenase 15-LO at compound concentration of 10.0 uM in the Eurofins-Panlabs enzyme assay (Eurofins_assay_199017). The following applies: Compound concentration 10.0 uM.
Assay [21] has as its target Sodium-dependent dopamine transporter (Homo sapiens) (UniProt Q01959). The conditions noted are these: Compound concentration 10.0 uM.
The target in assay [22] is Androgen receptor (Homo sapiens) (UniProt P10275). The following applies: Compound concentration 10.0 uM.
For assay [23], the target named is Estrogen receptor (Homo sapiens) (UniProt P03372). The following applies: Compound concentration 10.0 uM.
Assay [24] has as its target Insulin receptor (Homo sapiens) (UniProt P06213). The conditions noted are these: Rattus norvegicus; Compound concentration 10.0 uM.
Assay [25] addresses 3',5'-cyclic-AMP phosphodiesterase 4D (Homo sapiens) (UniProt Q08499). The experiment in a line: Inhibition of Phosphodiesterase PDE4D2 at 10 µM in the Eurofins-Panlabs enzyme assay (Eurofins_assay_154420). The arrangement: substrate with concentration. The conditions noted are these: Compound concentration 10.0 uM.
Assay [26] has as its target Growth hormone secretagogue receptor type 1 (Homo sapiens) (UniProt Q92847). The following applies: Compound concentration 10.0 uM.
In assay [27] the target is T2, Alpha-2B adrenergic receptor (Homo sapiens, UniProt P18089).
T2 sequence (P18089 whole entry): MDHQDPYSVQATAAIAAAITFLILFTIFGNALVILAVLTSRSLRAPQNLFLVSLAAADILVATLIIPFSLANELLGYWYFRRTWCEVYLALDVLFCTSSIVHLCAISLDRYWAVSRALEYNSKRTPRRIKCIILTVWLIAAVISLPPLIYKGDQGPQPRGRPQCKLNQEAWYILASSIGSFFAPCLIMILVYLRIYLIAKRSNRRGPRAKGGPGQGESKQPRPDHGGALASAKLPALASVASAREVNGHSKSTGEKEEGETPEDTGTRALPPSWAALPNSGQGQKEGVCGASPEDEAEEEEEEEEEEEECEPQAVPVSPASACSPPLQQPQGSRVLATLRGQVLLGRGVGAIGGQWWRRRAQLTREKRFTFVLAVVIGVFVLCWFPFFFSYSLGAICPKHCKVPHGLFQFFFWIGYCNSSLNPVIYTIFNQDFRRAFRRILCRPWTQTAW
The experiment in a line: Adrenoceptor Reporter Cell Assay (ADRA2B). The assay is classed as functional.

In assay [28] the target is D(1B) dopamine receptor (Homo sapiens) (UniProt P21918). The conditions noted are these: Compound concentration 10.0 uM.

Each structure is given as a SMILES string.

Beta-2 adrenergic receptor, sequence (P07550 whole entry, looked up): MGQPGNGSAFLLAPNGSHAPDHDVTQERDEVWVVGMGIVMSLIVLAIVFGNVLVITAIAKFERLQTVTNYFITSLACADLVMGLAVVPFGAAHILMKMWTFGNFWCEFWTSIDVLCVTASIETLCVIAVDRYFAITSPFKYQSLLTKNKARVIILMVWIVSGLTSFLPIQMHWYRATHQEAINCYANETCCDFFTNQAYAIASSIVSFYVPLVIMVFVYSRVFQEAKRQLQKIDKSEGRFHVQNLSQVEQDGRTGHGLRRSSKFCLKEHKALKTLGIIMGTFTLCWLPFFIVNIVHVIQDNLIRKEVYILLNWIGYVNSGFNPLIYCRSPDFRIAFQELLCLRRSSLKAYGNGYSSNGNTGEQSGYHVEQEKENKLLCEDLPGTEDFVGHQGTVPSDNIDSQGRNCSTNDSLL
D(1B) dopamine receptor (Homo sapiens), sequence (P21918 whole entry): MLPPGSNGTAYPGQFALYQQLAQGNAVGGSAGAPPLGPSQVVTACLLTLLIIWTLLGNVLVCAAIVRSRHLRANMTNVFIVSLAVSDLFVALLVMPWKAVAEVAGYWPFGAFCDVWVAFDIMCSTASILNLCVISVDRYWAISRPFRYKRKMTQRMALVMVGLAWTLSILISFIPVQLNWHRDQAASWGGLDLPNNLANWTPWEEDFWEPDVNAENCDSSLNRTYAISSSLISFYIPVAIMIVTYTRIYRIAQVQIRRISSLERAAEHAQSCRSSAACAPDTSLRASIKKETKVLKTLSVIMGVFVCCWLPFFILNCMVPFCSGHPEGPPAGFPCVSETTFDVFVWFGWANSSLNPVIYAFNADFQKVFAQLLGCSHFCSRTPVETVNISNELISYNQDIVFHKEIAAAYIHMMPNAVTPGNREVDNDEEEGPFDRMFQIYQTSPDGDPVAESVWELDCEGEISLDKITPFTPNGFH
Alpha-1B adrenergic receptor, sequence (P35368 whole entry): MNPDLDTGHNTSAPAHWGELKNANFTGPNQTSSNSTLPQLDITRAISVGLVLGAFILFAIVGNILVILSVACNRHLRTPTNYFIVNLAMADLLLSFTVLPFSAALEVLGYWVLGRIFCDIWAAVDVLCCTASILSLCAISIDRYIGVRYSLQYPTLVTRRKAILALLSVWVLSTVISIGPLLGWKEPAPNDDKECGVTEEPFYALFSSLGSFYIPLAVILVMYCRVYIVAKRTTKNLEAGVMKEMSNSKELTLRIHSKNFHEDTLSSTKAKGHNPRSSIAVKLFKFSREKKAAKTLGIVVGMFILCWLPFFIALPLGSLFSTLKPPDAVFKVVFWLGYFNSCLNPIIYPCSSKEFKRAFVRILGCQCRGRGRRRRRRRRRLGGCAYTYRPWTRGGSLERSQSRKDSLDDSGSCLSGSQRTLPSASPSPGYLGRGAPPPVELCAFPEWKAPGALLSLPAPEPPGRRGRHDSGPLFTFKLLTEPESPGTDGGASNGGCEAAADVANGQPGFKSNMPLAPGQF
Estrogen receptor (Homo sapiens), sequence (P03372 whole entry): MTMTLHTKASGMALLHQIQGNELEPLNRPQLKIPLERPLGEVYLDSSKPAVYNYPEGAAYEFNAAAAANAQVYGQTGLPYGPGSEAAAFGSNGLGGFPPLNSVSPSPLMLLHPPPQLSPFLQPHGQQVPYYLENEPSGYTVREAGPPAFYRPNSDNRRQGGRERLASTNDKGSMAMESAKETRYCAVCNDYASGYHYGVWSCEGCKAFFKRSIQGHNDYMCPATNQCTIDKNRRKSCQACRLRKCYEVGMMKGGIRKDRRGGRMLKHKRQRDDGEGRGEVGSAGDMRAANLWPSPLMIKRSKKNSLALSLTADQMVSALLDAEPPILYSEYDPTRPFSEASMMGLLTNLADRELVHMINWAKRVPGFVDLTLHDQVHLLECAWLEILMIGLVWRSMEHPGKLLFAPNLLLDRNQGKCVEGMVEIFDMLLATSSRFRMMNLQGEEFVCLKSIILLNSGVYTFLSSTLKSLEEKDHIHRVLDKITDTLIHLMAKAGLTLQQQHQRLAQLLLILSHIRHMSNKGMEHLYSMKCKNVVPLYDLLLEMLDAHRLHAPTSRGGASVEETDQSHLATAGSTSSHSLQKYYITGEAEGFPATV
Androgen receptor (Homo sapiens), sequence (P10275 whole entry): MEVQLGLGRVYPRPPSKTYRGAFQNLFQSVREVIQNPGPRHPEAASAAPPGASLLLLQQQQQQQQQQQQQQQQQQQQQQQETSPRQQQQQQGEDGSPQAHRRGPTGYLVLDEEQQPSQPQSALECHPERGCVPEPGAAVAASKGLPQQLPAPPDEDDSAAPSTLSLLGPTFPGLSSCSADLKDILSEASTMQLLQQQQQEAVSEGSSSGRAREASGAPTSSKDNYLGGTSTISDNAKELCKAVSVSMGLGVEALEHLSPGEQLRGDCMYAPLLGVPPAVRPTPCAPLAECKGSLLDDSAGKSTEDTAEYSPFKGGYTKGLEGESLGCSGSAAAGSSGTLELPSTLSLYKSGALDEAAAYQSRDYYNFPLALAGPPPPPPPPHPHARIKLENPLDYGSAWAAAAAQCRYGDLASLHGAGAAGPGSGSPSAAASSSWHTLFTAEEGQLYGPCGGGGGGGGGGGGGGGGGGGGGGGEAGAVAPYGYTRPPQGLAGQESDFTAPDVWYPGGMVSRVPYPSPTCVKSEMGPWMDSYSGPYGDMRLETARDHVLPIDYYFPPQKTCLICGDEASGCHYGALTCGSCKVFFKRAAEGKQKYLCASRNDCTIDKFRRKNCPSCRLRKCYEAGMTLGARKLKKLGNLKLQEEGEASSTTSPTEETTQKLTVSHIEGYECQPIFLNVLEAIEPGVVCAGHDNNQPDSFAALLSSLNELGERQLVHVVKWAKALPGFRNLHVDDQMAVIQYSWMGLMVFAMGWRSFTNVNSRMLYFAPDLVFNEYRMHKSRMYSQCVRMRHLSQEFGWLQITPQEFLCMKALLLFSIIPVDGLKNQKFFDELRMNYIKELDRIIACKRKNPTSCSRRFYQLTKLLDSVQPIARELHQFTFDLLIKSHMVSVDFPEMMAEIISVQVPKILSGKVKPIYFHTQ
3',5'-cyclic-AMP phosphodiesterase 4D (Homo sapiens), sequence (Q08499 whole entry): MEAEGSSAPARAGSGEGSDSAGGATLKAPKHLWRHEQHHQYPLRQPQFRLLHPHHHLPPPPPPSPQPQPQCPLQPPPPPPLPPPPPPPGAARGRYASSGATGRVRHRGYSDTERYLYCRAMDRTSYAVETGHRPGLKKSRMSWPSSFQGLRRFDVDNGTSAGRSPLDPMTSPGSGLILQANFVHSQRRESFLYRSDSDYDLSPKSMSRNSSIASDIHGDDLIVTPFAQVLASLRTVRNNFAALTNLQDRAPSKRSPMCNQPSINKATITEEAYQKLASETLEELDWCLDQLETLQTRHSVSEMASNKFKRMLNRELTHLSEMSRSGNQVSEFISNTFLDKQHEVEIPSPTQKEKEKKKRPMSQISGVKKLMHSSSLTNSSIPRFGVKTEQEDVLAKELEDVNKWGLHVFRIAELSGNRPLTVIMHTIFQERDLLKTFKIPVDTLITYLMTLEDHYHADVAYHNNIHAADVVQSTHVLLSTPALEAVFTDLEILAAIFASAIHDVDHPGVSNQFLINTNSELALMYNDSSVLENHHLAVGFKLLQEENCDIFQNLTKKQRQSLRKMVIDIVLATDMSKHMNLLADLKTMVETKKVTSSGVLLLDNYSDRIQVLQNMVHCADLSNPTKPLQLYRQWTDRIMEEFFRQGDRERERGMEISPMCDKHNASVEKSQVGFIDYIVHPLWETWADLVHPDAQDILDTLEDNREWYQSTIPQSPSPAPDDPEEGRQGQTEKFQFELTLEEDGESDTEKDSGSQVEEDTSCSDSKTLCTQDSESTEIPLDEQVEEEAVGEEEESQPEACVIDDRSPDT
Nitric oxide synthase, inducible (Homo sapiens), sequence (P35228 whole entry): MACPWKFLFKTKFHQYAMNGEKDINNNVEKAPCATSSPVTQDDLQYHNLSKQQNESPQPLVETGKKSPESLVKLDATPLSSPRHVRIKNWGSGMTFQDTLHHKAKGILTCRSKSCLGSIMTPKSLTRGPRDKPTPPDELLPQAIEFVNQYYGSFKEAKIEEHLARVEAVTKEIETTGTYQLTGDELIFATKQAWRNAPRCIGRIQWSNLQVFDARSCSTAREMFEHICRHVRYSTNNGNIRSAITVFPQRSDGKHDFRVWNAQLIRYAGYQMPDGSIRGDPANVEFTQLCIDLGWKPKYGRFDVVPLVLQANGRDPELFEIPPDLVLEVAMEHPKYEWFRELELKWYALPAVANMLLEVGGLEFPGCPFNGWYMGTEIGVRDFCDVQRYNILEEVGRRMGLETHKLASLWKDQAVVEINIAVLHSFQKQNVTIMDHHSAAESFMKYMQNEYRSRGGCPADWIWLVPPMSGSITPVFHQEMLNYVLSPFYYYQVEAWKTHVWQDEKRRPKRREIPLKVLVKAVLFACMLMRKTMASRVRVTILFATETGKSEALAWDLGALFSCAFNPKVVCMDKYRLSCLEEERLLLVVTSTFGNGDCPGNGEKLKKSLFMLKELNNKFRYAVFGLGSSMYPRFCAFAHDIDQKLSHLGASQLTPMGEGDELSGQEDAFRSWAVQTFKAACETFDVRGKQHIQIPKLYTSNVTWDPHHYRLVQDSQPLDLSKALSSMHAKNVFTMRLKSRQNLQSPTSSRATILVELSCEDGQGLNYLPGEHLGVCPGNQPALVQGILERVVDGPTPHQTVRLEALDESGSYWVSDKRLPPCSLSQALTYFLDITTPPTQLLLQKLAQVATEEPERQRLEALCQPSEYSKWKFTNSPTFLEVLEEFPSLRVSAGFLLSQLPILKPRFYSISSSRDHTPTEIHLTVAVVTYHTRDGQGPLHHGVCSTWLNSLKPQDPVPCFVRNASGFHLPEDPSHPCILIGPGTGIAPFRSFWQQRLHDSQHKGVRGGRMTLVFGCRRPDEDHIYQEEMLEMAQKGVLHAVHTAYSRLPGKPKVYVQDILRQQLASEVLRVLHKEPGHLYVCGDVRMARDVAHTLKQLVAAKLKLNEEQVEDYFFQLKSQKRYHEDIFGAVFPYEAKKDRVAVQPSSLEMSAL

As to `CNc1cc[n+](CCNC(=O)c2ccn3c(-c4c(C)noc4C)cnc3c2)cc1`, the inhibition – broadly, the drop in the measured response relative to a control, in per cent – in assay [1] is -0.4%; in assay [2], -8.3%; in the assay listed under Oryctolagus cuniculus, -7.5%; in assay [3] it was 3.4%; in assay [4] it was -0.2%; in [5] it was -2.3%. In addition, the inhibition in assay [6] is -4.49%; in [7] it was 1.2%; in [8], -6.7%; in assay [9], 3%; in assay [10] it was 0%; in [11], -8.7%. Further, the inhibition at D(2) dopamine receptor is -1.6%; in assay [13], 1.1%; in assay [14], 6.3%; in assay [15], 0.1%; in assay [16], 6.4%; in assay [17], -2.2%. Also, the inhibition was 0.4% in the assay filed under Rattus norvegicus; 0.2% in assay [18]; -0.5% in assay [20]; 20.3% in assay [21]; -2.7% in assay [22]; 6.2% in assay [23]. Further, the inhibition in assay [24] is -3.4%; in assay [25], -0.5%; in assay [26], 2.3%. For the same compound, the IC50 in [12] and in assay [19] was > 10 µM (not active) in each case.

As for `Cc1noc(C)c1-c1cnc2cc(C(=O)NCCC[n+]3ccc(N(C)C)cc3)ccn12`, in [27], the IC50 (as a rule, the concentration at which inhibition is half-maximal) is on record as 7.1 µM (not active). For the same compound, the inhibition in [28] is 0.03%.
